From US9918972B2, “Treatment of leukemia with artemisinin derivatives and combinations with other antineoplastic agents” (UNIVERSITY OF MARYLAND, BALTIMORE, priority 2014, dated 2018)

Assays:
MOLM14 = assay: Kinase inhibitor drug combination screen (MTS, Bliss-independence analysis)
MOLM14 cells [1] = assay: Apoptosis (APC Annexin-V / 7-AAD, FACS); format: cell-based, human; conditions: MOLM14, ABT-199 plus AS or ART-838, 24 hrs
Procedure: FIG. 13. […] MOLM14 cells were treated with ABT-199 and/or AS (upper panel) or ART-838 (lower panel) for 24 hrs. Cells were stained with APC Annexin-V and 7-AAD and analyzed by fluorescence-activated cell sorting (FACS) to assess apoptotic cells. The early apoptotic population was defined as APC Annexin-V (+) and 7-AAD (−). The total apoptotic population was defined as APC Annexin-V (+). Each experiment was performed in triplicate. […].
Drug or vehicle-treated cells (1-5×10^5/sample) were washed with cold PBS, resuspended in Annexin-V binding buffer, co-stained with 5 μl each of APC Annexin-V and 7-AAD viability dye (all from BioLegend, San Diego, Calif.), and incubated for 15 minutes at room temperature in the dark then stored on ice until analysis (<30 minutes). Stained cells were analyzed using the FL3 and FL4 channels of an Accuri C6 flow cytometer. ˜10,000 non-debris cellular events were collected per sample and analyzed, as for cell cycle. The Annexin-V^−/7-AAD^− population was designated “viable,” the Annexin-V^+/7-AAD^− population was designated “early apoptotic,” and the Annexin-V^+/7-AAD^+ population was designated “dying/dead” [47].

MOLM14 and KOPN8 cells = assay: Validation of ABT-199/ABT-737 + AS/ART-838 combinations, alamarBlue, Chou-Talalay; format: cell-based, human; conditions: MOLM14 and KOPN8, AS or ART-838 at IC50, 48 h
Procedure: FIGS. 10A-10B. Validation of cytotoxicity of ABT-199/ABT-737+AS/ART-838 combinations by alamarBlue assay. […] Each experiment was performed in triplicate. All data points between 0.1-99.9% growth inhibition were analyzed using the methods of Chou and Talalay and combination indices (CIs) calculated. CIs were graphed against the fractional effect (FE; the fraction of cells inhibited at each concentration). CI<1 indicates synergy, CI=1, additivity, CI>1, antagonism.
(§1) MOLM14 or KOPN8 cells were seeded in 96-well plates as described above for alamarBlue assays. Cells were treated with a certain concentrations of AS, or ART-838 or DHA, in combination with a range of concentrations of ABT-199 or ABT-263 or ABT-737. AlamarBlue assays were performed as described above. Each set of drugs or drug combinations was tested in triplicate. Chou-Talalay drug combination analysis was performed as above.
Cytotoxicity of the individual drugs and combinations was assessed using alamarBlue fluorescence, a more sensitive indicator of cell metabolism (as a surrogate for cell number) than MTS.
Drug combination interactions were assessed using the methods of Chou-Talalay, a more robust measure of synergy than the Bliss independence model. The Chou-Talalay method, however, can only be used at drug effect levels from 0.1-99.9%. […]

RCH-ACV = assay: Kinase inhibitor drug combination screen (MTS, Bliss-independence analysis)
KOPN8 = assay: as above
MOLM14 cells [2] = assay: Combinations of AS, ART-838 or DHA with BCL-2 inhibitors, alamarBlue, 48 h; format: cell-based, human
Procedure: FIGS. 11A-11C. Antileukemic efficacy of ABT-199, ABT-263 or ABT-737 combined with AS or ART-838. […] Each experiment was performed in triplicate.
FIG. 12. […] MOLM14 cells were treated with increasing concentrations of ABT-199, ABT-263 or ABT-737 without or with DHA (500 nM and 1 μM) for 48hrs. Then cytotoxicity was evaluated by alamarBlue assays. Each experiment was performed in triplicate.
as §1

[3] = tested on: MOLM14, Kasumi-1, KOPN8 and RCH-ACV leukemia cell lines; assay: Kinase inhibitor drug combination screen, summary over the four leukemia cell lines; conditions: for No. Cell Lines: cell lines synergistically inhibited (>10% over Bliss) by drug 1 combined with AS and/or ART-838; for average inhibition over the Bliss prediction: plus ART-838, average over synergistic cell lines; for average inhibition over the Bliss independence prediction: average over synergistic cell lines; for synergy with AS or ART-838: screens in four human leukemia cell lines
Kasumi-1 = assay: Kinase inhibitor drug combination screen (MTS, Bliss-independence analysis); conditions: Kasumi-1, Drug 2 = ART-838 at approximate IC50, 48 h
[4] = tested on: chemotherapy (doxorubicin, hydroxyurea, methotrexate, or vincristine)-resistant CEM (T-ALL) sub-lines; conditions: reference [27]; cited from earlier work
MOLM14 cells [5] = assay: ROS - mitochondrial superoxide (MitoSOX flow cytometry); format: cell-based, human; conditions: MOLM14, drug alone, 2.25x IC50, 16 h
Procedure: FIGS. 4A-4D. […] CIs were computed as described above. CI<1 indicates synergy, CI=1, additivity, CI>1, antagonism. […] Cells were then loaded with 5 μM MitoSox for 30 min, washed, and analyzed by flow cytometry for MitoSox fluorescence (indicating mitochondrial superoxide) in the FL2 channel. […] Error bars represent the SEM of three independent experiments.

[6] = MOLM14, Drug 2 = ART-838 at approximate IC50, 48 h
[7] = MOLM14, Drug 2 = AS at approximate IC50, 48 h
[8] = Drug 2 = ART-838 at approximate IC50, 48 h
[9] = Drug 2 = AS at approximate IC50, 48 h
[10] = KOPN8, Drug 2 = ART-838 at approximate IC50, 48 h
[11] = KOPN8, Drug 2 = AS at approximate IC50, 48 h

fractional inhibition over Bliss prediction (MOLM14; [6]) | fractional inhibition over Bliss prediction (MOLM14; [7]) | fractional inhibition over Bliss prediction (RCH-ACV; [8]) | fractional inhibition over Bliss prediction (RCH-ACV; [9]) | fractional inhibition over Bliss prediction (KOPN8; [10]) | fractional inhibition over Bliss prediction (KOPN8; [11]) | fractional inhibition over Bliss prediction (Kasumi-1) | Structure (SMILES) | induction of apoptosis (MOLM14 cells [1]) | cytotoxic efficacy on addition of AS or ART-838 (MOLM14 and KOPN8 cells) | leukemia cell growth inhibition (MOLM14 cells [2]; MOLM14, 37 nM ABT-199 alone) | growth inhibition (MOLM14 cells [2]; MOLM14, 37 nM ABT-199 together with ART-838 25 nM) [%] | growth inhibition (MOLM14 cells [2]; MOLM14, 37 nM ABT-199 together with AS 825 nM) [%] | No. Cell Lines [3] | cell lines in which combination was synergistic ([3]; plus ART-838) | average inhibition over the Bliss prediction [3] [%] | cell lines in which combination was synergistic ([3]; plus AS) | average inhibition over the Bliss independence prediction ([3]; plus AS) [%] | synergy with AS or ART-838 [3] | efficacy against resistant sub-lines vs parental line [4] | mitochondrial superoxide (MitoSox MFI) (MOLM14 cells [5])
MOLM14 (0.18), | MOLM14 (0.20), | RCH-ACV (0.35) | RCH-ACV (0.16) | KOPN8 (0.11), | KOPN8 (0.15), |  | CC1(C)CCC(CN2CCN(c3ccc(C(=O)NS(=O)(=O)c4ccc(NCC5CCOCC5)c([N+](=O)[O-])c4)c(Oc4cnc5[nH]ccc5c4)c3)CC2)=C(c2ccc(Cl)cc2)C1 [ABT-199] | cooperated to induce apoptosis | potently increased the efficacy | did not inhibit | 100 | 100 | 3/4 | 3/4 | 21 | 3/4 | 17 | Particularly strong synergy |  | 
MOLM14 (0.34), | MOLM14 (0.50), | RCH-ACV (0.24) | RCH-ACV (0.23) | KOPN8 (0.28), | KOPN8 (0.25), | Kasumi-1 (0.11), | CN(C)CC[C@H](CSc1ccccc1)Nc1ccc(S(=O)(=O)NC(=O)c2ccc(N3CCN(Cc4ccccc4-c4ccc(Cl)cc4)CC3)cc2)cc1[N+](=O)[O-] [ABT-737] |  | potently increased the efficacy |  |  |  | 4/4 | 4/4 | 24 | 3/4 | 33 | Particularly strong synergy |  | 
 |  |  |  |  |  |  | C[C@H]1[C@H](OC(=O)CCC(=O)O)O[C@@H]2O[C@@]3(C)CC[C@H]4[C@H](C)CC[C@@H]1[C@@]24OO3 [AS, artesunate] |  |  |  |  |  |  |  |  |  |  |  | as effective | increased
